“Also recorded” adds a separate entry of the source.
Tested on: LPS-induced acute inflammation
Experiment: In vivo LPS-induced acute inflammation in mice (Q-PCR of lung/spleen, serum Elisa)
Set-up: species or system C57BL/6 mice
Details: 30 mg/kg orally 2 h after 3 mg/kg LPS i.p.; samples 4 h after administration
Description: In this example, the effects of compounds on LPS-induced acute inflammation model in vivo were analyzed by the expression levels of inflammatory factors; the mRNA expression levels of tissue inflammation-related indicators were detected by the method of real-time quantitative PCR (Q-PCR), and the levels of inflammatory factors in serum were detected by the method of Elisa. C57BL/6 mice were purchased from SLAC, and the Elisa kits were purchased from Novusbio, with item no. 890860 for IL-6 and item no. 266117 for TNF-α. […]
Construction of inflammation model in mice: C57BL/6 mice were randomly divided into three groups: one control group, five experimental animals; one LPS modeling group, with five experimental animals; and two treatment groups, with five experimental animals. […] The blood was collected from the orbit of mice in each group at 4 h after the administration of the drug, and the spleen and lung tissues were collected after the euthanasia. mRNA was extracted from lung and spleen tissues respectively, and real-time quantitative PCR was performed after reverse transcription to assess the mRNA expression level of inflammation-related indicators, and Elisa assay was performed after serum extraction to assess the secretion level of inflammatory factors.

With `COc1cc2c3cc1Oc1c(OC)c(OC)cc4c1[C@H](Cc1ccc(cc1)Oc1cc(ccc1C(N)=O)C[C@H]3N(C)CC2)N(C)CC4` [Compound 4] the “inflammatory factors and chemokines, mRNA levels and cytokine secretion levels, LPS-induced acute inflammation in mice” value was “significantly inhibited; also recorded: significant decrease”.
